Measurements as given in US6348471B1, “Pyrimidyl oxyphenylacetic acid derivatives” (Bayer Aktiengesellschaft, priority 1997, dated 2002).

Assays:
[1] = logP by HPLC (EEC directive 79/831 Annex V. A8, gradient method); format: physicochemical
Method: The logP values were determined in accordance with EEC directive 79/831 Annex V. A8 by HPLC (gradient method, acetonitrile/0.1% aqueous phosphoric acid)

Pyrenophora teres = Pyrenophora teres test (barley)/curative; format: in vivo; settings: curative, application rate 250 g/ha, evaluation 7 days after inoculation
Method: Pyrenophora teres test (barley)/curative Solvent: 10 parts by weight of N-methyl-pyrrolidone Emulsifier: 0.6 parts by weight of alkylaryl polyglycol ether To produce a suitable preparation of active compound, 1 part by weight of active compound is mixed with the stated amounts of solvent and emulsifier, and the concentrate is diluted with water to the desired concentration. To test for curative activity, young plants are sprayed with a conidia suspension of Pyrenophora teres. The plants remain in an incubation cabin at 20° C. and 100% relative atmospheric humidity for 48 hours. The plants are subsequently sprayed with the preparation of active compound at the stated application rate. The plants are placed in a greenhouse at a temperature of approximately 20° C. and a relative atmospheric humidity of approximately 80%.

Leptosphaeria nodorum = Leptosphaeria nodorum test (wheat)/curative; format: in vivo; settings: curative, application rate 125 g/ha, evaluation 10 days after inoculation
Method: Leptosphaeria nodorum test (wheat)/curative Solvent: 10 parts by weight of N-methyl-pyrrolidone Emulsifier: 0.6 parts by weight of alkylaryl polyglycol ether To produce a suitable preparation of active compound, 1 part by weight of active compound is mixed with the stated amounts of solvent and emulsifier, and the concentrate is diluted with water to the desired concentration. To test for curative activity, young plants are sprayed with a conidia suspension of Leptosphaeria nodorum. […] The plants are placed in a greenhouse at a temperature of approximately 15° C. and a relative atmospheric humidity of approximately 80%.

CNC(=O)C(=NOC)c1ccccc1Oc1nccc(OC(C)C)n1 [Example 1, 2-[2-(4-isopropoxypyrimidin-2-yloxy)-phenyl]-2-methoxyimino-N-methylacetamide]
chromatographic logP [1]: 2.2 | efficacy (Pyrenophora teres): 70% | efficacy (Leptosphaeria nodorum): more than 60%
